The results in this text go back to ChEMBL document CHEMBL1921713, “A simple synthesis of APM ([p-(N-acrylamino)-phenyl]mercuric chloride), a useful tool for the analysis of thiolated biomolecules” (Bioorg Med Chem Lett, 2011).

Active and inactive are the calls of the source. The rule behind the calls is not given here.

What all share (format): nucleic-acid assay
For assay [1], the system named is Nucleic Acid. As to the kind of experiment: Binding affinity to Schizosaccharomyces pombe Thiolated Lys-tRNA using 32P-labelled probe by PAGE analysis.
Assay [2] relates to Nucleic Acid. As to the kind of experiment: Binding affinity to Schizosaccharomyces pombe Non-thiolated Met-tRNA using 32P-labelled probe by PAGE analysis.
In assay [3] the test system is Nucleic Acid. As to the kind of experiment: Binding affinity to ctu1-deficient Schizosaccharomyces pombe Lys-tRNA using 32P-labelled probe by PAGE analysis.

Take “[p-(N-acrylamino)-phenyl]mercuric chloride”: in the assay with Nucleic Acid [1], the outcome was Active. The outcome with Nucleic Acid [2] and with Nucleic Acid [3] was inactive.
